In patent US9963482B2, “Phosphatidylinositol-3-kinase inhibitor and pharmaceutical composition” (Tohoku University, priority 2011, dated 2018):
Where two headings read alike, the source gives them in different places.

What was measured:
[1] = target: T1, human p110α expressed in budding yeast (Homo sapiens, UniProt P42336); experiment: Screening of PI3K inhibitor using budding yeast (recovery from cell proliferation disorder caused by p110α); type: cell-based; conditions: AD1-9 transformant expressing p110α, compound 5 μM, 24 hours, average of three tests
T1 construct: expressed in transfected cells; host or cells: Saccharomyces cerevisiae AD1-9 (LEU2-disrupted), galactose-induced
T1 sequence (P42336 whole entry): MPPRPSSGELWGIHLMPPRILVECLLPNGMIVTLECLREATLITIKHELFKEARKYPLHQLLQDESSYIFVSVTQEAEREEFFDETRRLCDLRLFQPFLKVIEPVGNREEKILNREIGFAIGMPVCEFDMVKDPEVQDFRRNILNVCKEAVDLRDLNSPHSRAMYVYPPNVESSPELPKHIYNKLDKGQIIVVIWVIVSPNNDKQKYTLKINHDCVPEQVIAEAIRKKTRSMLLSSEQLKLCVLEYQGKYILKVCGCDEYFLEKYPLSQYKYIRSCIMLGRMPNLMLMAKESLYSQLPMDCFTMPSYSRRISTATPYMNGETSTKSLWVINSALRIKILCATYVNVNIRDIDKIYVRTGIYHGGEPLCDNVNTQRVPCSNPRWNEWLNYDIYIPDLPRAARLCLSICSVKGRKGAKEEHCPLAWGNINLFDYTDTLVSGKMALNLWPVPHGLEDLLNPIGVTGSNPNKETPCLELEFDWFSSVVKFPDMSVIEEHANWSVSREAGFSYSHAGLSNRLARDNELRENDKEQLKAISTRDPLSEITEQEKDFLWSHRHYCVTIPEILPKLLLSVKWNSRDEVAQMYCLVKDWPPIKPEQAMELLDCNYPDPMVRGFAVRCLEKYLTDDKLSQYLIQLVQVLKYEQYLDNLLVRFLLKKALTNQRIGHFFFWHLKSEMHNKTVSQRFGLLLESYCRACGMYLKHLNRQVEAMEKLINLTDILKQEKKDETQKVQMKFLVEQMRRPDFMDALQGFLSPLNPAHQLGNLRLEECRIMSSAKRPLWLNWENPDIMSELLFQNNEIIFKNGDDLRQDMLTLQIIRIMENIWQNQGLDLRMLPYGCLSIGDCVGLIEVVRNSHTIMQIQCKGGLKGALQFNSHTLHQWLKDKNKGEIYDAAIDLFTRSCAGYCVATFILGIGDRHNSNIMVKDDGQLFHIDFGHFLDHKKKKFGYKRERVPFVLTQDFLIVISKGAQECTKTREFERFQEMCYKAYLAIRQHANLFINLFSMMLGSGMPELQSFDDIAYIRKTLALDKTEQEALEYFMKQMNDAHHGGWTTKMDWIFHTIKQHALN
Method: AD1-9 strain can be obtained from Nader Nourizad (Stanford Genome Technology Center Stanford University, CA, USA).
The transformed AD 1-9 strain was cultured at 30° C. in a minimal complete medium SC-U-L containing no uracil and leucine or SGal-U-L in which 2% glucose was replaced with 2% galactose.
By using the aforementioned system, screening of the compound library, which was obtained from the Screening committee of anticancer drugs supported by grant-in-aid for scientific research on priority area “Cancer” from Ministry of Education, Culture, Sports, Science, and Technology, Japan, was performed. Each compound was added to SGal-U-L liquid medium to constitute a concentration of 0.5 μM or 5 μM and the transformant of AD 1-9 was cultured for 24 hours under shaking. Thereafter, A600 was measured. […] Three independent tests were repeatedly performed to calculate the average value of A600.

PI3K (p110α/p85α) = target: T2, PI3K (p110α/p85α) (Homo sapiens, UniProt P42336); experiment: In vitro PI3K inhibitory activity by mobility shift assay (Carna Biosciences); type: biochemical
T2 construct: purchased Carna Biosciences, Inc. (Kobe); contract measurement
T2 sequence (P42336 whole entry): as above
T2 sequence (P27986 whole entry partner): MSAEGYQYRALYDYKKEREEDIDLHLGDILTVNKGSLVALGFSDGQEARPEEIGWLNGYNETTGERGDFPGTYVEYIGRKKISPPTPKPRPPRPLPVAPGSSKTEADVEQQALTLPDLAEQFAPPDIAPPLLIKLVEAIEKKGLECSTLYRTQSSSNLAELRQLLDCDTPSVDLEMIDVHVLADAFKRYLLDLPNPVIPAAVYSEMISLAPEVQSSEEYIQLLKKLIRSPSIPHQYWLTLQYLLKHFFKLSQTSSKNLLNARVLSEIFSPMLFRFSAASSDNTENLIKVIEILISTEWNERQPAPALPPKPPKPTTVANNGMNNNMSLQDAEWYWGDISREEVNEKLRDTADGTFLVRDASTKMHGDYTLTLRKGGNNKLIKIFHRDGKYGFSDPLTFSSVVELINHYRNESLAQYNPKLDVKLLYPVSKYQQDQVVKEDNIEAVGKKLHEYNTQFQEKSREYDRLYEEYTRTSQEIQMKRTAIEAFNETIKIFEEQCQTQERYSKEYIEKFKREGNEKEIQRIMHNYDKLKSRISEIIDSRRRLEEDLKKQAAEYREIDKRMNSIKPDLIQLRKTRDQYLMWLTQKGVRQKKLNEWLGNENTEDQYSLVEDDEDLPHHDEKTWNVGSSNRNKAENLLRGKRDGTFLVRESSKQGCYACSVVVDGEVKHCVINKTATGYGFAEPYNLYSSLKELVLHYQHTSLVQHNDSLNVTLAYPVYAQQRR
Method: The PI3K (p110α/p85α) inhibitory activity was evaluated at Carna Biosciences, Inc. (Kobe) by mobility shift assay which included isolation and quantification of a substrate and the phosphorylated substrate based on the mobility in a capillary (https://www.carnabio.com/japanese/product/search.cgi?mode=profiling). […] After allowing the reaction to occur for 5 hours at room temperature, the mobility shift assay was performed. The test was performed in duplicate.
Inhibition rate was calculated as follows.
The value of product/substrate+product when an agent was added thereto was calculated similarly, and the inhibition rate was calculated based on a difference from the control value.

[2] = system: AKT pathway in PC3 (prostate cancer) cells; experiment: AKT pathway inhibition by Western blotting in PC3 cells; type: cell-based, human; conditions: for expression level of phosphorylated AKT (Ser-473, Thr-308) over time: 5 to 180 minutes; for expression levels of phosphorylated AKT, GSK-3β, mTOR, p70S6K and 4E-BP1: varying concentration
Method: PC3 cells were obtained from Cell Resource Center for Medical Research of Institute of Development, Aging, and Cancer, Tohoku University. The cells were cultured at 37° C. in the presence of 5% CO2 by using RPMI1640 medium containing inactivated fetal bovine serum at the concentration of 10%.
Western blotting was performed as follows. Various kinds of the cells treated with each compound were collected and lysed in a lysis buffer (500 mM Tris-HCl pH 7.5, 100 mM NaCl, 2 mM EDTA, 1 mM sodium orthovanadate, 1% NP-40, and 1% protease inhibitor cocktail, manufactured by SIGMA-ALDRICH). After centrifugation, the supernatants were collected.
The followings were used as primary antibodies.
As a secondary antibody, “Alexa Fluor680IgG” (trade name, manufactured by Invitrogen) was used. By using “Odyssey Infrared Imaging System” (trade name, manufactured by LI-COR), expression of the protein of interest was determined.

HCT116 cells [3] = experiment: Cytotoxic effect by MTT assay, HCT116; type: cell-based, human; conditions: HCT116, 24 hours
Method: (§1) The human culture cells used were colon cancer cell lines (HCT116, CO115, and RKO). HCT116 and RKO were obtained from American Type Culture Collection (ATCC). CO115 was obtained from John M. Mariadason (Ludwig Institute for Cancer Research, Melbourne, Australia). The cells were cultured at 37° C. in the presence of 5% CO2 by using RPMI1640 medium containing inactivated fetal bovine serum at the concentration of 10%.
(§2) After 24 hours, the number of live cells was determined by using “Cell counting kit-8” (trade name, manufactured by DOJINDO CO., LTD). […] The amount of formazan dye and the number of live cells are in proportional relationship, and by measuring the absorbance of formazan at 450 nm using a microplate reader (trade name: “SpectraMax M2e”, manufactured by Molecular Devices), the number of live cells was counted.

RKO cells = experiment: Cytotoxic effect by MTT assay, RKO; type: cell-based, human; conditions: 24 hours
Method: as §1, §2

CO115 cells = experiment: Cytotoxic effect by MTT assay, CO115; type: cell-based, human; conditions: CO115, 24 hours
Method: as §1, §2

HCT116 cells [4] = experiment: FACS cell cycle analysis in HCT116 cells; type: cell-based, human; conditions: HCT116, 24 hours; SAHA 2.5 μM, LY294002 50 μM, FK228 or FK-A5 at low concentration
Method: The cells were collected, fixed with ethanol, stained with iodopropidium/PBS solution, and analyzed by using “Cytomics FC500 Flow Cytometry System” (trade name, manufactured by Beckman Coulter). The cell cycle fractions were calculated by using “Multicycle software” (trade name, manufactured by Phenomix Flow Systems).

HDAC1 = HDAC1 (Homo sapiens, UniProt Q13547); conditions: cited from earlier work
Chain of HDAC1 (Q13547 whole entry, species assumed): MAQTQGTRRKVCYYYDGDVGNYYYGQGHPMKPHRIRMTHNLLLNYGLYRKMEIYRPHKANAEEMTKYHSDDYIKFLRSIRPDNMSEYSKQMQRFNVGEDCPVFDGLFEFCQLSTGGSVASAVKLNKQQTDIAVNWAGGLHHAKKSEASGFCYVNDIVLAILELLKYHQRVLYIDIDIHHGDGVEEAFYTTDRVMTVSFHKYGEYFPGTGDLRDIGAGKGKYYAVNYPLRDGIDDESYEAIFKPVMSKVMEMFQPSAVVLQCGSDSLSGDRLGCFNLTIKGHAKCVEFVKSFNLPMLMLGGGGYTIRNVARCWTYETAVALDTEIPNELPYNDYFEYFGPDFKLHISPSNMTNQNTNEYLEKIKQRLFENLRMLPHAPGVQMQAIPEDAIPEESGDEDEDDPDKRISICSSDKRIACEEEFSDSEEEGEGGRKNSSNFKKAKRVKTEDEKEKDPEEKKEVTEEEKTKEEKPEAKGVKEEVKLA

HDAC6 = target: T3, HDAC6 (Homo sapiens, UniProt Q9UBN7); conditions: Table 2; cited from earlier work
T3 sequence (Q9UBN7 1-1215): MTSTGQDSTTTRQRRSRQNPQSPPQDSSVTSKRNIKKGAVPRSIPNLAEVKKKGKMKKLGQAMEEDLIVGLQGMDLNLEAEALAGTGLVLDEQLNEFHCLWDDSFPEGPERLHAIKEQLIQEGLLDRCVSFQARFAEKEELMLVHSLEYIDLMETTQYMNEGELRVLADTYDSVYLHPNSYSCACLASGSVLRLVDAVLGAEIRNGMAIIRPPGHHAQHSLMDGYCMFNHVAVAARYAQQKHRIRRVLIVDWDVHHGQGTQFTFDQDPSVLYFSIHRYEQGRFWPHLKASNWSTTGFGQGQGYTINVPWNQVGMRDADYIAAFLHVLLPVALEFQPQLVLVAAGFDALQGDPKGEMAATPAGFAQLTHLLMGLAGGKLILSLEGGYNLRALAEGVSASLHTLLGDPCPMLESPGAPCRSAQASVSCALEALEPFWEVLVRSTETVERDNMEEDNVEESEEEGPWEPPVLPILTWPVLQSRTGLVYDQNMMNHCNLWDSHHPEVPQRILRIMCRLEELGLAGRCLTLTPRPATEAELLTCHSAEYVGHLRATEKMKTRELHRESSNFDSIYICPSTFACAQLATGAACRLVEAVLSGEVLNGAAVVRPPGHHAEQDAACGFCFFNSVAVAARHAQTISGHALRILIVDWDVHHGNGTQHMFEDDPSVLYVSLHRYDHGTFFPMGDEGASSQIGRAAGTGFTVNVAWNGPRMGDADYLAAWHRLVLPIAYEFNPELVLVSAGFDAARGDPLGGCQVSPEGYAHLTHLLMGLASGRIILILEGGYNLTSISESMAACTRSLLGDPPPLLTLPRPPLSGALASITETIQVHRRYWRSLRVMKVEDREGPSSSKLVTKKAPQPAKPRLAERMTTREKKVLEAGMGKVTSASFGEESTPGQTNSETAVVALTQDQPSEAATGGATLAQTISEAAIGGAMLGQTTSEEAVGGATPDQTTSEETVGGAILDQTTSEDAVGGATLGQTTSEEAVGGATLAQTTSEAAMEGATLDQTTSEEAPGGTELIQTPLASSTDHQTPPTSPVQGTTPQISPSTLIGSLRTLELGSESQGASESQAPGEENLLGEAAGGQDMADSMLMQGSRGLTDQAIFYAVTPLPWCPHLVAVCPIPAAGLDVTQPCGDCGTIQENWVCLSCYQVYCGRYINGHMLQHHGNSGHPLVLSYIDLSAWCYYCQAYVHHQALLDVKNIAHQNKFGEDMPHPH

HCT116 cells [5] = experiment: Western blotting for apoptosis, AKT and histone acetylation in HCT116 cells; type: cell-based, human; conditions: HCT116, 24 hours, 5 μM
Method: With regard to Western blotting, HCT116 cells were treated for 24 hours with SAHA or FK-228 at predetermined concentrations, and then the expression of PARP, cleaved PARP, phosphorylated AKT (S473), AKT, acetylated histone H3, and acetylated histone H4 was analyzed.

CC(C)[C@H]1NC(=O)CC2/C=C/CCSSCC(NC1=O)C(=O)N[C@H](Cc1ccccc1)C(=O)NCC(=O)O2 (stereo in doubt) [FK-A5]
A600 [1]: 0.449 | IC50 (PI3K (p110α/p85α); 50 μM ATP, read-out: IC50 for PI3K): 26.2 µM | IC50 (PI3K (p110α/p85α); Table 3, PI3K (p110α/p85α), read-out: PI3K IC50): 27.3 µM | PI3K activity inhibitory rate (PI3K (p110α/p85α); compound 20 μM, 50 μM ATP): higher inhibition rate than FK228 | inhibition at 20 µM (PI3K (p110α/p85α); compound 20 μM, 50 μM ATP, read-out: PI3K activity inhibitory rate): 66.8% | expression level of phosphorylated AKT (Ser-473, Thr-308) over time ([2]; 10 μM): lowered the expression level of phosphorylated AKT (Ser-473, Thr-308) | phosphorylated ERK1/2 ([2]; 180 minutes): slightly inhibited | phosphorylated MEK1/2 ([2]; 180 minutes): not inhibited | expression levels of phosphorylated AKT, GSK-3β, mTOR, p70S6K and 4E-BP1 ([2]; 180 minutes): inhibited in a concentration dependent manner | number of cells at high concentration (HCT116 cells [3]; μM levels): very significantly reduced the number of cells | number of cells at high concentration (RKO cells; μM levels): very significantly reduced the number of cells | number of cells at high concentration (CO115 cells; μM levels): very significantly reduced the number of cells | cell cycle arrest (HCT116 cells [4]): induced cell cycle arrest, predominantly at G2/M phase | IC50 (HDAC1; Table 2): 0.0025 µM | IC50 (HDAC1; Table 3): 0.0025 µM | IC50 (HDAC6): 1.6 µM

C/C=C1\NC(=O)[C@H]2CSSCC/C=C/[C@H](CC(=O)N[C@H](C(C)C)C(=O)N2)OC(=O)[C@H](C(C)C)NC1=O [FK228, romidepsin]
A600 [1]: 0.385 | IC50 (PI3K (p110α/p85α); high ATP concentration (500 μM), read-out: IC50 for PI3K): 125 µM | inhibition at 10 µM (PI3K (p110α/p85α); read-out: inhibition rate in the PI3K inhibition curve): 6.5% | IC50 (PI3K (p110α/p85α); standard ATP concentration (50 μM), read-out: IC50 for PI3K): 57.2 µM | expression level of phosphorylated AKT (Ser-473, Thr-308) over time ([2]; 10 μM): lowered the expression level of phosphorylated AKT (Ser-473, Thr-308) | lowering of expression level of phosphorylated AKT (S473) compared to control ([2]; 10 μM, 180 minutes): 66% | lowering of expression level of phosphorylated AKT (T308) compared to control ([2]; 10 μM, 180 minutes): 86% | phosphorylated ERK1/2 ([2]; 180 minutes): slightly inhibited | phosphorylated MEK1/2 ([2]; 180 minutes): not inhibited | expression levels of phosphorylated AKT, GSK-3β, mTOR, p70S6K and 4E-BP1 ([2]; 180 minutes): inhibited in a concentration dependent manner | cell cycle arrest (HCT116 cells [4]): induced cell cycle arrest, predominantly at G2/M phase | Cleaved PARP (HCT116 cells [5]): increased most | expression of acetylated histone (HCT116 cells [5]): enhanced the expression of acetylated histone | phosphorylated AKT (HCT116 cells [5]): inhibited the phosphorylated AKT

CC(C)[C@H]1NC(=O)CC2/C=C/CCSSCC(NC1=O)C(=O)N[C@H](Cc1cccc3ccccc13)C(=O)NCC(=O)O2 (some centres unmarked) [FK-A11]
inhibition of AKT phosphorylation compared with FK-A5 and FK228 ([2]; 180 minutes): occurred at a lower concentration than FK-A5 and FK228 | cell death (HCT116 cells [3]; 5 nM to 500 nM): significant cell death | cell death (RKO cells; 5 nM to 500 nM): significant cell death | cell death (CO115 cells; from 500 nM): strong cell death | cell death (CO115 cells; up to 50 nM): resistant
